ChEMBL document CHEMBL4739714, “Inhibitors of cyclin-dependent kinase 12 (cdk12) and uses thereof” (2020)
Activity calls are given as the source filed them. The calls are words filed in the database; no cut-off is given here.

Assays:
Format in all cases: cell-based
[1] = target: Cyclin-dependent kinase 12 (Homo sapiens) (UniProt Q9NYV4); assay: Inhibition of biotinylated-THZ1 binding to CDK12 in human Jurkat cells assessed as reduction in cyclin K pull down at 1 uM preincubated for 6 hrs followed by biotinylated-THZ1 addition by Western blotting based pull-down assay
Chain of Cyclin-dependent kinase 12 (Homo sapiens) (Q9NYV4 whole entry, looked up): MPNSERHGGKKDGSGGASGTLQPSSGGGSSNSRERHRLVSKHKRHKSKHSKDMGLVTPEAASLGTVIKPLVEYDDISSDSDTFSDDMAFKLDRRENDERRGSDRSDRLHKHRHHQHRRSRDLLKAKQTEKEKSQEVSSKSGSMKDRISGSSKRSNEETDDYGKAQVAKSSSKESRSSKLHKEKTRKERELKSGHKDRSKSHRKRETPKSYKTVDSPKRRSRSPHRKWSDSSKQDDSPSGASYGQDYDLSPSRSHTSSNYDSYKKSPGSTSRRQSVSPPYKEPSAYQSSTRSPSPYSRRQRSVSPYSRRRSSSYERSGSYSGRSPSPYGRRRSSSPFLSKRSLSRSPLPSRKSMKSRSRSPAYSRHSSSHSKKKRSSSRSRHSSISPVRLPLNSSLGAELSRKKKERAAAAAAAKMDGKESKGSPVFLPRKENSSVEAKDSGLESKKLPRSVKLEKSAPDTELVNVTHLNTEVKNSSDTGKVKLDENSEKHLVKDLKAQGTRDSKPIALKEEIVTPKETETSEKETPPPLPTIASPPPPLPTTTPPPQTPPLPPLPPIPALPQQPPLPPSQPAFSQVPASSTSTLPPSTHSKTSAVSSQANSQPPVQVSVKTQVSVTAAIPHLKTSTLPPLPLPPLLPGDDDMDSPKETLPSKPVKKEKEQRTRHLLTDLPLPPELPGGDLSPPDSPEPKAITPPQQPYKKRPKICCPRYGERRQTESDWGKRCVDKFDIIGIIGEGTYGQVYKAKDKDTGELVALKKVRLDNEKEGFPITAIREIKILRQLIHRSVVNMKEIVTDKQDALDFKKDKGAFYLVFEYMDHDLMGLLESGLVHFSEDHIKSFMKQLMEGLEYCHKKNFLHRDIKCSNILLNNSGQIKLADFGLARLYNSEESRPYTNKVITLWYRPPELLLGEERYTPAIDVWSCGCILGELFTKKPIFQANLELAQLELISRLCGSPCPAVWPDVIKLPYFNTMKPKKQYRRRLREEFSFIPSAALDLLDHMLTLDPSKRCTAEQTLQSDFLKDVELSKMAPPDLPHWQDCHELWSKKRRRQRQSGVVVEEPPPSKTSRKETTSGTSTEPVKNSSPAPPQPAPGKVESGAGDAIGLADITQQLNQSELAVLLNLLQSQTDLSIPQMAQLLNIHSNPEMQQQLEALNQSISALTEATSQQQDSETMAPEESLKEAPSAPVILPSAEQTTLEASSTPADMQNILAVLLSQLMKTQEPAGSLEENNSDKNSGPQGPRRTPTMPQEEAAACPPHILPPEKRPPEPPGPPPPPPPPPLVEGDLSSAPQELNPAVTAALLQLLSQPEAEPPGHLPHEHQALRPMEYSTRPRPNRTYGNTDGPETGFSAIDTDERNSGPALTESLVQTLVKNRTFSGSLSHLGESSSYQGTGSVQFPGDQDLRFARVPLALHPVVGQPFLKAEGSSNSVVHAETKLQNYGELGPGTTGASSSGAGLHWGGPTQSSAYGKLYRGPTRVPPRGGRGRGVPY

[2] = target: Cyclin-dependent kinase 7 (Homo sapiens) (UniProt P50613); assay: Inhibition of biotinylated-THZ1 binding to CDK7 in human Jurkat cells assessed as reduction in cyclin H pull down at 1 uM preincubated for 6 hrs followed by biotinylated-THZ1 addition by Western blotting based pull-down assay
Chain of Cyclin-dependent kinase 7 (Homo sapiens) (P50613 whole entry): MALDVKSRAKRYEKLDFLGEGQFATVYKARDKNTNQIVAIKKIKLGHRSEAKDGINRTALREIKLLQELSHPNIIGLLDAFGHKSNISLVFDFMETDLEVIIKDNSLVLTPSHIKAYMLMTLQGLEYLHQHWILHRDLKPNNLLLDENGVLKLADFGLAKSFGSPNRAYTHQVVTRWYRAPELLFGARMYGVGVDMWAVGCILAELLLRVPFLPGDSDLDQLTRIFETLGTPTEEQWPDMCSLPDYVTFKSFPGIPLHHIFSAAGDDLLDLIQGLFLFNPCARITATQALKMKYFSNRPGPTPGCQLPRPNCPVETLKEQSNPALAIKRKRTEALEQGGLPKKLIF

[3] = target: Cyclin-dependent kinase 12/13 (Homo sapiens) (UniProt Q14004+Q9NYV4); assay: Inhibition of biotinylated-THZ1 binding to CDK12/CDK13 in human Jurkat cells assessed as reduction in cyclin K pull down at 1 uM preincubated for 6 hrs followed by biotinylated-THZ1 addition by Western blotting based pull-down assay

SMILES	inhibition [1]	inhibition [2]	inhibition [3]
CN(C)C/C=C/C(=O)Nc1ccc(C(=O)N2CCC[C@@H](Nc3ncc(Cl)c(-c4c[nH]c5ccccc45)n3)C2)nc1	inactive		
C=CC(=O)Nc1ccc(O[C@@H]2CCC[C@@H](Nc3ncc(Cl)c(-c4c[nH]c5ccccc45)n3)C2)cc1	inactive		
C=CC(=O)Nc1ccc(N2CCC[C@@H](Nc3ncc(Cl)c(-c4c[nH]c5ccccc45)n3)C2)nc1	inactive		
CN(C)C/C=C/C(=O)Nc1ccc(O[C@@H]2CCC[C@@H](Nc3ncc(Cl)c(-c4c[nH]c5ccccc45)n3)C2)cc1	inactive	inactive	Active
CN(C)C/C=C/C(=O)Nc1ccc(N2CCC[C@@H](Nc3ncc(Cl)c(-c4c[nH]c5ccccc45)n3)C2)nc1	inactive	inactive	
C=CC(=O)Nc1ccc(N2CCC[C@@H](Nc3ncc(Cl)c(-c4c[nH]c5ccccc45)n3)C2)cc1	inactive	inactive	
CN(C)C/C=C/C(=O)Nc1ccc(C(=O)Nc2cccc(Nc3ncc(Cl)c(-c4c[nH]c5ccccc45)n3)c2)cc1		Active	Active
